Literature values in PubChem BioAssay AID1259409 (Chemical Carcinogenesis Research Information System (CCRIS), 2018).

System: rodent chemically induced tumor inhibition, incidence and multiplicity
Assay: CCRIS tumor inhibitor studies
Conditions: Dose [Inhibitor]: 0, Species: RAT

Q: With `NCCS` as the compound, how does the “tumour outcome (control, treated, inhibition, significance)” value (Carcinogen: 7,12-DIMETHYLBENZ[A]ANTHRACENE, 57-97-6, 0.015 MOL/KG DIET BEGINNING 2 WK PRIOR TO CARCINOGEN AND CONTINUED FOR STUDY DURATION (STUDY DURATION: 25 WK), Route [Inhibitor]: ORAL, Strain/Sex: CD-1/FEMALE, Target Tissue: Type of Lesion: MAMMARY GLAND: ADENOCARCINOMA, Dose [Carcinogen]: 10 MG ONCE, Promoter: NONE USED) read?
A: Its value is 18/25 (72%), 17/25 (68%), 5%, not significant.

Q: What about the “tumour outcome (control, treated, inhibition, significance)” value (Carcinogen: 7,12-DIMETHYLBENZ[A]ANTHRACENE, 57-97-6, 0.03 MOL/KG DIET BEGINNING 2 WK PRIOR TO CARCINOGEN AND CONTINUED FOR STUDY DURATION (STUDY DURATION: 25 WK), Route [Inhibitor]: ORAL, Strain/Sex: CD-1/FEMALE, Target Tissue: Type of Lesion: MAMMARY GLAND: ADENOCARCINOMA, Dose [Carcinogen]: 10 MG ONCE, Promoter: NONE USED) of the same compound?
A: Its value is 18/25 (72%), 12/25 (48%), 33%, not significant.

Q: What about the “tumour outcome (control, treated, inhibition, significance)” value (Carcinogen: 7,12-DIMETHYLBENZ[A]ANTHRACENE, 57-97-6, 0.06 MOL/KG DIET BEGINNING 2 WK PRIOR TO CARCINOGEN AND CONTINUED FOR STUDY DURATION (STUDY DURATION: 25 WK), Route [Inhibitor]: ORAL, Strain/Sex: CD-1/FEMALE, Target Tissue: Type of Lesion: MAMMARY GLAND: ADENOCARCINOMA, Dose [Carcinogen]: 10 MG ONCE, Promoter: NONE USED) of the same compound?
A: Its value is 18/25 (72%), 13/25 (52%), 28%, not significant.

Q: What about the “tumour outcome (control, treated, inhibition, significance)” value (Carcinogen: AZOXYMETHANE, 25843-45-2, 25 MG/KG IN 0.9% SODIUM CHLORIDE 1/2 D FOR 40 WK ADMINISTERED CONCURRENTLY WITH CARCINOGEN (STUDY DURATION: 40 WK), Route [Inhibitor]: SUBCUTANEOUS, Strain/Sex: WISTAR, Target Tissue: Type of Lesion: COLON: TUMOR, Dose [Carcinogen]: 7.4 MG/KG IN 0.9% SODIUM CHLORIDE SOLUTION 1/WK FOR 10 WK, Promoter: NONE USED) of the same compound?
A: The value was 17/18 (94%), 7/17 (41%), 56%, p<0.01.

Q: And the “tumour outcome (control, treated, inhibition, significance)” value (Carcinogen: N-METHYL-N'-NITRO-N-NITROSOGUANIDINE, 70-25-7, 5 MG/KG 1/2 D ADMINISTERED SIMULTANEOUSLY WITH 30 MG/KG SULPIRIDE BEGINNING 1 WK POST CARCINOGEN TREATMENT AND CONTIN, Route [Inhibitor]: SUBCUTANEOUS, Strain/Sex: WISTAR/MALE, Target Tissue: Type of Lesion: STOMACH: ADENOCARCINOMA, Dose [Carcinogen]: 50 UG/ML IN DRINKING WATER FOR 25 WK, Promoter: NONE USED)?
A: The value was 13/18 (72%), 5/20 (25%), 65%, not calculated.

Q: And the “tumour outcome (control, treated, inhibition, significance)” value (Carcinogen: N-METHYL-N'-NITRO-N-NITROSOGUANIDINE, 70-25-7, 5 MG/KG 1/2 D BEGINNING 1 WK POST CARCINOGEN TREATMENT AND CONTINUING FOR DURATION OF STUDY (STUDY DURATION: 52 WK), Route [Inhibitor]: SUBCUTANEOUS, Strain/Sex: WISTAR/MALE, Target Tissue: Type of Lesion: STOMACH: ADENOCARCINOMA, Dose [Carcinogen]: 50 UG/ML IN DRINKING WATER FOR 25 WK, Promoter: NONE USED)?
A: Its value is 13/18 (72%), 13/20 (65%), 10%, not significant.

Q: And the “tumour outcome (control, treated, inhibition, significance)” value (Carcinogen: N-METHYL-N'-NITRO-N-NITROSOGUANIDINE, 70-25-7, 5 MG/KG IN 1 ML/KG OLIVE OIL 1/2 D FOR STUDY DURATION BEGINNING POST CARCINOGEN TREATMENT (STUDY DURATION: 52 WK), Route [Inhibitor]: SUBCUTANEOUS, Strain/Sex: WISTAR/MALE, Target Tissue: Type of Lesion: GLANDULAR STOMACH: ADENOCARCINOMA, Dose [Carcinogen]: 50 UG/ML DRINKING WATER FOR 25 WK)?
A: The value was 13/18 (72%), 13/20 (65%), 10%, not significant.

Q: And the “tumour outcome (control, treated, inhibition, significance)” value (Carcinogen: N-METHYL-N'-NITRO-N-NITROSOGUANIDINE, 70-25-7, 25 MG/KG 1/2 D ADMINISTERED SIMULTANEOUSLY WITH 30 MG/KG SULPIRIDE BEGINNING 1 WK POST CARCINOGEN TREATMENT AND CONTI, Route [Inhibitor]: SUBCUTANEOUS, Strain/Sex: WISTAR/MALE, Target Tissue: Type of Lesion: STOMACH: ADENOCARCINOMA, Dose [Carcinogen]: 50 UG/ML IN DRINKING WATER FOR 25 WK, Promoter: NONE USED)?
A: Its value is 13/18 (72%), 6/20 (30%), 58%, not calculated.

Q: What about the “tumour outcome (control, treated, inhibition, significance)” value (Carcinogen: N-METHYL-N'-NITRO-N-NITROSOGUANIDINE, 70-25-7, 25 MG/KG 1/2 D BEGINNING 1 WK POST CARCINOGEN TREATMENT AND CONTINUING FOR DURATION OF STUDY (STUDY DURATION: 52 WK), Route [Inhibitor]: SUBCUTANEOUS, Strain/Sex: WISTAR/MALE, Target Tissue: Type of Lesion: STOMACH: ADENOCARCINOMA, Dose [Carcinogen]: 50 UG/ML IN DRINKING WATER FOR 25 WK, Promoter: NONE USED) of the same compound?
A: Its value is 13/18 (72%), 6/20 (30%), 58%, p<0.05.

Q: And the “tumour outcome (control, treated, inhibition, significance)” value (Carcinogen: N-METHYL-N'-NITRO-N-NITROSOGUANIDINE, 70-25-7, 25 MG/KG IN 0.9% SALINE 1/2 D BEGINNING 1 WK POST LAST CARCINOGEN DOSE AND CONTINUING FOR DURATION OF STUDY (STUDY DU, Route [Inhibitor]: SUBCUTANEOUS, Strain/Sex: WISTAR/MALE, Target Tissue: Type of Lesion: STOMACH: ADENOCARCINOMA, Dose [Carcinogen]: 100 UG/ML IN DRINKING WATER FOR 25 WK, Promoter: NONE USED)?
A: The value was 16/20 (80%), 10/22 (45%), 44%, p<0.05.
